Assay results from patent publication US20260285850A1, “SUBSTITUTED OXAZOLIDINONES AND IMIDAZOLINONES AS HERBICIDES” (FMC CORPORATION, priority 2023, published 2026).

How the values were obtained:
Type in all cases: in vivo
[1] = test system: barnyardgrass (Echinochloa crus-galli); test: Test A preemergence soil spray, visual injury rating 0-100; conditions: 10 days, 0 = no effect, 100 = complete control
In short: (§1)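 Greenhouse test: loam/sand pots received a surfactant-containing formulation, as a preemergence directed soil spray or a postemergence spray on young plants. Injury was judged visually at day 10 relative to untreated controls.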

[2] = test system: blackgrass (Alopecurus myosuroides); test: as above; conditions: 10 days, 0 = no effect, 100 = complete control
In short: as §1

corn (Zea mays) [3] = test: as above; conditions: 10 days, 0 = no effect, 100 = complete control
In short: as §1

[4] = test system: green foxtail (Setaria viridis); test: as above; conditions: 10 days, 0 = no effect, 100 = complete control
In short: as §1

kochia (Bassia scoparia) [5] = test: as above; conditions: 10 days, 0 = no effect, 100 = complete control
In short: as §1

[6] = test system: oat, wild (wild oat, Avena fatua); test: as above; conditions: 10 days, 0 = no effect, 100 = complete control
In short: as §1

[7] = test system: palmer (palmer amaranth, palmer pigweed, Amaranthus palmeri); test: as above; conditions: 10 days, 0 = no effect, 100 = complete control
In short: as §1

[8] = test system: ragweed (common ragweed, Ambrosia artemisiifolia); test: as above; conditions: 10 days, 0 = no effect, 100 = complete control
In short: as §1

[9] = test system: ryegrass, Italian (italian ryegrass, Lolium multiflorum); test: as above; conditions: 10 days, 0 = no effect, 100 = complete control
In short: as §1

soybean (Glycine max) [10] = test: as above; conditions: 10 days, 0 = no effect, 100 = complete control
In short: as §1

[11] = test system: wheat (Triticum aestivum); test: as above; conditions: 10 days, 0 = no effect, 100 = complete control
In short: as §1

[12] = test system: barnyardgrass (Echinochloa crus-galli); test: Test A postemergence application, visual injury rating 0-100; conditions: 10 days
In short: as §1

[13] = test system: blackgrass (Alopecurus myosuroides); test: as above; conditions: 10 days
In short: as §1

corn (Zea mays) [14] = test: as above; conditions: 10 days
In short: as §1

[15] = test system: galium (catchweed bedstraw, Galium aparine); test: as above; conditions: 10 days
In short: as §1

[16] = test system: green foxtail (Setaria viridis); test: as above; conditions: 10 days
In short: as §1

[17] = test system: horseweed (Erigeron canadensis); test: as above; conditions: 10 days
In short: as §1

kochia (Bassia scoparia) [18] = test: as above; conditions: 10 days
In short: as §1

[19] = test system: oat, wild (wild oat, Avena fatua); test: as above; conditions: 10 days
In short: as §1

[20] = test system: palmer (palmer amaranth, palmer pigweed, Amaranthus palmeri); test: as above; conditions: 10 days
In short: as §1

[21] = test system: ragweed (common ragweed, Ambrosia artemisiifolia); test: as above; conditions: 10 days
In short: as §1

[22] = test system: ryegrass, Italian (italian ryegrass, Lolium multiflorum); test: as above; conditions: 10 days
In short: as §1

soybean (Glycine max) [23] = test: as above; conditions: 10 days
In short: as §1

[24] = test system: wheat (Triticum aestivum); test: as above; conditions: 10 days
In short: as §1

[25] = test system: barnyardgrass (Echinochloa crusgalli); test: Test B flooded paddy test, visual plant response rating 0-100; conditions: 250 g ai/ha, Flood, applied to paddy water, evaluated after 13 days
In short: (§2)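 Treatment occurs at the 2-leaf stage by adding compound to floodwater standing 3 cm above the soil, a level kept for the whole test. Plants stay in the greenhouse 13 days before visual comparison with controls.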

[26] = test system: ducksalad (Heteranthera limosa); test: as above; conditions: 250 g ai/ha, Flood, applied to paddy water, evaluated after 13 days
In short: as §2

rice (Oryza sativa) = test: as above; conditions: 250 g ai/ha, Flood, applied to paddy water, evaluated after 13 days
In short: as §2

[27] = test system: sedge, umbrella (small-flower umbrella sedge, Cyperus difformis); test: as above; conditions: 250 g ai/ha, Flood, applied to paddy water, evaluated after 13 days
In short: as §2

[28] = 31 g ai/ha, postemergence, 0 = no effect, 100 = complete control
[29] = Postemergence, 125 g ai/ha, 0 is no effect, 100 is complete control

CC(C)COC(=O)C1C=CC(NC(=O)C2(C)CN(c3cc(F)cc(F)c3)C(=O)O2)C1 (stereo not shown) [Compound 56]
Barnyardgrass plant response rating (0-100) ([1]; 31 g ai/ha): 30 | Barnyardgrass plant response rating (0 to 100 scale) ([1]; 125 g ai/ha): 100 | Blackgrass plant response rating (0-100) ([2]; 31 g ai/ha): 30 | Blackgrass plant response rating (0 to 100 scale) ([2]; 125 g ai/ha): 90 | Corn plant response rating (0-100) (corn (Zea mays) [3]; 31 g ai/ha): 10 | Corn plant response rating (0 to 100 scale) (corn (Zea mays) [3]; 125 g ai/ha): 90 | Foxtail, Green plant response rating (0-100) ([4]; 31 g ai/ha): 40 | Foxtail, Green plant response rating (0 to 100 scale) ([4]; 125 g ai/ha): 90 | Kochia plant response rating (0-100) (kochia (Bassia scoparia) [5]; 31 g ai/ha): 0 | Kochia plant response rating (0 to 100 scale) (kochia (Bassia scoparia) [5]; 125 g ai/ha): 90 | Oat, Wild plant response rating (0-100) ([6]; 31 g ai/ha): 90 | Oat, Wild plant response rating (0 to 100 scale) ([6]; 125 g ai/ha): 90 | Amaranth, Palmer plant response rating (0-100) ([7]; 31 g ai/ha): 0 | Amaranth, Palmer plant response rating (0 to 100 scale) ([7]; 125 g ai/ha): 70 | Ragweed plant response rating (0-100) ([8]; 31 g ai/ha): 0 | Ragweed plant response rating (0 to 100 scale) ([8]; 125 g ai/ha): 0 | Ryegrass, Italian plant response rating (0-100) ([9]; 31 g ai/ha): 80 | Ryegrass, Italian plant response rating (0 to 100 scale) ([9]; 125 g ai/ha): 90 | Soybean plant response rating (0-100) (soybean (Glycine max) [10]; 31 g ai/ha): 30 | Soybean plant response rating (0 to 100 scale) (soybean (Glycine max) [10]; 125 g ai/ha): 80 | Wheat plant response rating (0-100) ([11]; 31 g ai/ha): 90 | Wheat plant response rating (0 to 100 scale) ([11]; 125 g ai/ha): 100 | Barnyardgrass plant response rating (0-100) [12, 28]: 90 | Barnyardgrass plant response rating (0 to 100 scale) [12, 29]: 100 | Blackgrass plant response rating (0-100) [13, 28]: 60 | Blackgrass plant response rating (0 to 100 scale) [13, 29]: 90 | Corn plant response rating (0-100) (corn (Zea mays) [14]; [28]): 90 | Corn plant response rating (0 to 100 scale) (corn (Zea mays) [14]; [29]): 100 | Galium plant response rating (0-100) [15, 28]: 80 | Galium plant response rating (0 to 100 scale) [15, 29]: 80 | Foxtail, Green plant response rating (0-100) [16, 28]: 30 | Foxtail, Green plant response rating (0 to 100 scale) [16, 29]: 90 | Horseweed plant response rating (0-100) [17, 28]: 20 | Horseweed plant response rating (0 to 100 scale) [17, 29]: 80 | Kochia plant response rating (0-100) (kochia (Bassia scoparia) [18]; [28]): 70 | Kochia plant response rating (0 to 100 scale) (kochia (Bassia scoparia) [18]; [29]): 80 | Oat, Wild plant response rating (0-100) [19, 28]: 90 | Oat, Wild plant response rating (0 to 100 scale) [19, 29]: 90 | Amaranth, Palmer plant response rating (0-100) [20, 28]: 90 | Amaranth, Palmer / Pigweed, Palmer plant response rating (0 to 100 scale) [20, 29]: 80 | Ragweed plant response rating (0-100) [21, 28]: 50 | Ragweed plant response rating (0 to 100 scale) [21, 29]: 70 | Ryegrass, Italian plant response rating (0-100) [22, 28]: 90 | Ryegrass, Italian plant response rating (0 to 100 scale) [22, 29]: 90 | Soybean plant response rating (0-100) (soybean (Glycine max) [23]; [28]): 70 | Soybean plant response rating (0 to 100 scale) (soybean (Glycine max) [23]; [29]): 70 | Wheat plant response rating (0-100) [24, 28]: 90 | Wheat plant response rating (0 to 100 scale) [24, 29]: 90 | Plant response rating, Barnyardgrass (0 to 100 scale, 0 is no effect and 100 is complete control) [25]: 95 | Plant response rating, Ducksalad (0 to 100 scale, 0 is no effect and 100 is complete control) [26]: 90 | Plant response rating, Rice (0 to 100 scale, 0 is no effect and 100 is complete control) (rice (Oryza sativa)): 15 | Plant response rating, Sedge, Umbrella (0 to 100 scale, 0 is no effect and 100 is complete control) [27]: 50
